Experimental data taken from patent publication US20040092549A1, “Methods and compositions for selective cancer chemotherapy” (priority 2001, published 2004).

Columns and labels:
melanoma cells = conditions: treatment as in Example 2
Protocol: (§2) Cultures are re-fed periodically with additions of respective supplements, with or without medium change as indicated. Controls consist of cells receiving growth medium without added supplement.
(§3) The following day, threonate treatment is initiated using one of two protocols.
(§4) In one protocol (short exposure), monolayers are washed and exposed directly to 1 mL/well of 7.5-30 mM threonate (prepared in Ringer's solution) for brief periods at 37 C. as described by Fay and Verlangieri (referenced above). […] After exposure, the solution is removed and replaced by growth medium. […]
(§5) Cell survival following treatment is assessed at predetermined intervals by taking viable cell counts using a Neubauer haemocytometer. Viable cells are scored as those capable excluding trypan blue as previously described (Harakeh and Jariwalla, Am.J.Clin.Nutr. 54:1231S-1235S (1991)). […]
(§6) The induction of apoptosis following treatment of various tumor cell types with the Test compositions and controls described in Example 1 is evaluated using an enzyme-linked immunoassay (“ELISA”) developed by Boehringer-Mannheim (Indianapolis, Ind.). […] The presence and level of nucleosomal fragments in cytoplasmic lysates after different treatments is determined using the procedure specified in the cell-death detection ELISA kit, supplied by Boehringer-Mannheim. […]

hepatoma cells = conditions: treatment as in Example 2
Protocol: as §2, §3, §4, §5, §6

[1] = system: WRL-68 Normal Human Liver Cells; assay: Cell-death detection ELISA (apoptosis), WRL-68 normal liver cells; assay type: cell-based
Protocol: (§1) Working stock solutions (10× strength) are made in sterile water immediately before use. For comparative evaluation, stock solutions of Test 2 and Test 4 solutions are prepared in sterile water, normalized to contain AA equivalents identical to the Test 1 stock. These stocks are stored at room temperature for use in evaluations. […] Parallel sets of wells are treated similarly with stock solutions of CA+CT and CA alone, containing the same equivalents of AA as Test 1. Control cultures are treated with an equivalent volume of sterile water. Periodic treatment with these compositions is repeated at 1-2 day intervals by direct addition of fresh solutions (without change of growth medium). […] Briefly, the ELISA assay is carried out as follows. […] The “Number of Treatments” is the total number of treatments with the Composition. The “Maximum Fold Increase in Apoptosis” is the maximal fold change in apoptosis over the control and the “Maximum Dose” is the concentration of the Composition which induces the “Maximum Fold Apoptosis” compared to the control.

SK-N-MC Neuroblastoma = assay: Cell-death detection ELISA (apoptosis), SK-N-MC neuroblastoma; assay type: cell-based, Human
Protocol: as §1

[2] = system: SK-Hep-1 Liver adenocarcinoma; assay: Cell-death detection ELISA (apoptosis), SK-Hep-1 liver adenocarcinoma; assay type: cell-based, Human
Protocol: as §1

Malme-3M Melanoma = assay: Cell-death detection ELISA (apoptosis), Malme-3M melanoma; assay type: cell-based, Human
Protocol: as §1

[3] = system: Malme-3 Normal Human Skin Fibroblasts; assay: Cell-death detection ELISA (apoptosis), Malme-3 normal skin fibroblasts; assay type: cell-based
Protocol: as §1

T-84 Colon Carcinoma = assay: Cell-death detection ELISA (apoptosis), T-84 colon carcinoma; assay type: cell-based, Human
Protocol: as §1

[4] = concentration causing 2-fold change in apoptosis over control
[5] = concentration inducing the maximum fold apoptosis
[6] = maximal fold change over control

| Compound | cell death (apoptosis) in melanoma cells as compared to normal cellular counterparts (melanoma cells) | cell death (apoptosis) in hepatoma cells as compared to normal cellular counterparts (hepatoma cells) | MINIMUM APOPTOTIC DOSE, DOSE CONC. (%) [1, 4] | MAXIMUM FOLD INCREASE IN APOPTOSIS, DOSE CONC. (%) [1, 5] | MAXIMUM FOLD INCREASE IN APOPTOSIS [1, 6] | MINIMUM APOPTOTIC DOSE, DOSE CONC. (%) (SK-N-MC Neuroblastoma; [4]) | MAXIMUM FOLD INCREASE IN APOPTOSIS, DOSE CONC. (%) (SK-N-MC Neuroblastoma; [5]) | MAXIMUM FOLD INCREASE IN APOPTOSIS (SK-N-MC Neuroblastoma; [6]) | MINIMUM APOPTOTIC DOSE, DOSE CONC. (%) [2, 4] | MAXIMUM FOLD INCREASE IN APOPTOSIS, DOSE CONC. (%) [2, 5] | MAXIMUM FOLD INCREASE IN APOPTOSIS [2, 6] | MINIMUM APOPTOTIC DOSE, DOSE CONC. (%) (Malme-3M Melanoma; [4]) | MAXIMUM FOLD INCREASE IN APOPTOSIS, DOSE CONC. (%) (Malme-3M Melanoma; [5]) | MAXIMUM FOLD INCREASE IN APOPTOSIS (Malme-3M Melanoma; [6]) | MINIMUM APOPTOTIC DOSE, DOSE CONC. (%) [3, 4] | MAXIMUM FOLD INCREASE IN APOPTOSIS, DOSE CONC. (%) [3, 5] | MAXIMUM FOLD INCREASE IN APOPTOSIS [3, 6] | MINIMUM APOPTOTIC DOSE, DOSE CONC. (%) (T-84 Colon Carcinoma; [4]) | MAXIMUM FOLD INCREASE IN APOPTOSIS, DOSE CONC. (%) (T-84 Colon Carcinoma; [5]) | MAXIMUM FOLD INCREASE IN APOPTOSIS (T-84 Colon Carcinoma; [6]) |
| --- | --- | --- | --- | --- | --- | --- | --- | --- | --- | --- | --- | --- | --- | --- | --- | --- | --- | --- | --- | --- |
| Calcium Threonate [calcium threonate (CT)] | selective dose-dependent cell death (apoptosis) | selective dose-dependent cell death (apoptosis) | – | – | – | – | – | – | – | – | – | – | – | – | – | – | – | – | – | – |
| O=C1O[C@H]([C@@H](O)CO)C(O)=C1O [ascorbic acid (AA), Ascorbic Acid] | selective dose-dependent cell death (apoptosis) | – | – | – | – | – | – | – | – | – | – | – | – | – | – | – | – | – | – | – |
| Calcium Ascorbate | – | – | 0.012% | 0.012% | 2.22 fold | 0.015% | 0.015% | 5.03 fold | 0.006% | 0.033% | 12.04 fold | 0.012% | 0.025% | 92.8 fold | 0.025% | 0.025% | 2.16 fold | >0.06% | 0.033% | 1.77 fold |
